Source: patent US20220257557A1, “PHARMACEUTICAL COMPOSITION FOR PREVENTING OR TREATING NEUROLOGICAL DISEASES” (GLACEUM INC., priority 2019, published 2022)

Experiments:
SH-SY5Y cells [1] = assay: Intracellular ATP production after MPP+ mitochondrial damage; type: cell-based, Human; settings: 1 mM MPP+ 24 h, then 0.0001-1 μM compound 24 h, FIG. 3
Method: (§1) Human neuronal SH-SY5Y cells were cultured in a 1:1 DMEM/F12 medium containing 10% FBS (fetal bovine serum) at 37° C. under 5% carbon dioxide and 95% air. The cultured cells were transferred to a 96-well cell culture plate at a density of 2*10^4 cells/well and cultured for 24 hours. Thereafter, after replacement with serum-restricted medium (1:1 DMEM/F12 medium containing 0.5% FBS), the cells were cultured for 16 hours. Then, the cultured cells were treated with 1 mM MPP+ (1-methyl-4-phenylpyridinium) and cultured for 24 hours, thus inducing mitochondrial dysfunction in the cells. […]
100 μl of the cell lysate of the culture obtained in Experimental Example 3-1 was mixed with 100 μl of luciferin-luciferase reaction buffer using an ATP bioluminescent somatic cell assay kit (Sigma-Aldrich), and the mixture was allowed to react at 20° C. for 10 minutes. Thereafter, the supernatant was obtained and the fluorescence intensity thereof was measured with an LB 9501 Lumat-Luminometer to confirm recovery from the decrease in intracellular ATP production caused by mitochondrial damage.
The fluorescence intensities of controls were measured in the same manner as the above-described method, except for using a sample to which DMSO was added (normal control) instead of MMP+ and the compound of Formula III-1 and a sample to which the compound of Formula III-1 was not added (negative control). […]

SH-SY5Y cells [2] = assay: Cell death from MPP+ mitochondrial damage, MTT cell viability; type: cell-based, Human; settings: 1 mM MPP+ 24 h, then 0.0001-1 μM compound 24 h, FIG. 2
Method: as §1
Each of the cultures obtained in Experimental Example 3-1 was treated with 0.2 mg/ml of 3-(4,5-dimethylthiazol-2-yl)-2,5-diphenyl-tetrazolium bromide (MTT; Sigma-Aldrich) and cultured for 4 hours. The MTT formazan precipitate formed by the viable cells was dissolved in 100 μl of 0.04N hydrochloric acid/isopropanol, and the absorbance at 540 nm was measured using an ELISA microplate reader (Molecular Devices).
The absorbances of controls were measured in the same manner as the above-described method, except for using a sample to which DMSO was added (normal control) instead of MMP+ and the compound of Formula III-1 and a sample to which the compound of Formula III-1 was not added (negative control).
The cell viability percentage was calculated from the absorbance.

PON2 mRNA = assay: Relative expression level of PON2 mRNA in liver of DIO mice (real-time PCR); type: in vivo, C57BL/6J DIO mice; settings: 100 mg/kg orally once daily for 6 weeks, 60% fat diet, FIG. 1a
Method: 14-Week-old C57BL/6J DIO (Diet Induced Obesity) mice (The Jackson Laboratory, USA) were purchased. The normal control group was fed a 10% fat diet for 3 weeks, and the DIO control group was fed a 60% fat diet for 3 weeks. In addition, the Formula III-1 compound-administered group was fed a 60% fat diet for 3 weeks, and then 100 mg/kg of the compound of Formula III-1 was orally administered thereto once daily for 6 weeks.
The mice of the normal control group, the DIO control group and the Formula III-1 compound-administered group were euthanized, and the liver tissues were extracted therefrom, washed with a PBS solution containing PIC (protease inhibitor cocktail), sectioned to a size of 0.2 to 0.5 g, and stored at −196° C. until the experiment.
The following experiment was conducted using the liver tissue sections from the normal control group, the DIO control group and the Formula III-1 compound-administered group.
The relative expression level of PON2 mRNA was analyzed using real-time PCR. Specifically, trizol (Invitrogen, Carlsbad, Calif., USA) was added to the liver tissue which was then minced using a homogenizer, and total RNA was extracted therefrom. […]

SH-SY5Y cells [3] = assay: Reactive oxygen species generation (DCF-DA) after MPP+; type: cell-based, Human; settings: 1 mM MPP+ 24 h, then 0.0001-1 μM compound 24 h, FIG. 4
Method: as §1
Based on the principle that 2′,7′-dichlorofluorescein diacetate (DCF-DA) is oxidized to fluorescent DCF by reaction with reactive oxygen species, the level of reactive oxygen species generation was measured. […] Then, the fluorescence intensity of DCF at an excitation wavelength of 485 nm and an emission wavelength of 535 nm and the fluorescence intensity of bisbenzimide at an excitation wavelength of 335 nm and an emission wavelength of 460 nm were measured using a fluorescence analyzer to determine the level of reactive oxygen species generation. […]
The concentration of DCF determined from the fluorescence intensity was expressed as a percentage of the normal control.

BV2 cells = assay: NO and PGE2 production after LPS; type: cell-based; settings: 3 h pretreatment (Table 3 amounts), LPS 1 μg/ml 24 h
In short: (§2)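 RAW264.7 or BV2 cells (5×10^5 cells/well) in DMEM with 10% FBS were pretreated with compound, then stimulated with 1 μg/ml LPS for 24 h. iNOS and COX-2 expression by Western blot; NO and PGE2 production measured. Compound toxicity checked by MTT.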

RAW264.7 cells = assay: NO and PGE2 production after LPS; type: cell-based; settings: 3 h pretreatment (Table 3 amounts), LPS 1 μg/ml 24 h
In short: as §2

CCOc1ccc(C2COc3c(ccc4c3CCC(C)(C)O4)C2)c(O)c1 (centres unmarked) [Formula III-1, 2-(8,8-dimethyl-2,3,4,8,9,10-hexahydropyrano[2,3-f]chromen-3-yl)-5-ethoxyphenol]
decrease in ATP production caused by mitochondrial damage due to MPP+ (SH-SY5Y cells [1]): recovery
function of mitochondria damaged by MPP+ (cell viability percentage) (SH-SY5Y cells [2]): restored
expression level of PON2 mRNA compared with normal control group (PON2 mRNA): higher
level of intracellular reactive oxygen species generation (DCF) (SH-SY5Y cells [3]): decreased
production of NO (BV2 cells): concentration-dependently decreased
production of PGE2 (BV2 cells): concentration-dependently decreased
production of NO (RAW264.7 cells): concentration-dependently decreased
production of PGE2 (RAW264.7 cells): concentration-dependently decreased
